Measured values published in PubChem BioAssay (NCI).
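How tested: cells in 96-well plates exposed to compound for 48 hours at five concentrations. GI50 is the concentration that inhibits growth by half. TGI: total growth inhibition.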

Key:
Assay in all cases: DTP human tumour cell line panel, 48 h
A549 NSCLC = tested on: A549 NSCLC
CCRF-CEM leukemia = tested on: CCRF-CEM leukemia
EKVX NSCLC = tested on: EKVX NSCLC
HL-60(TB) leukemia = tested on: HL-60(TB) leukemia
HOP-92 NSCLC = tested on: HOP-92 NSCLC
IGROV1 ovarian = tested on: IGROV1 ovarian
NCI-H460 lung = tested on: NCI-H460 lung
PC-3 prostate = tested on: PC-3 prostate
SK-MEL-28 melanoma = tested on: SK-MEL-28 melanoma
TK-10 renal = tested on: TK-10 renal

Structure (SMILES) | GI50 (A549 NSCLC) [µM] | TGI (A549 NSCLC) [µM] | GI50 (CCRF-CEM leukemia) [µM] | TGI (CCRF-CEM leukemia) [µM] | GI50 (EKVX NSCLC) [µM] | TGI (EKVX NSCLC) [µM] | GI50 (HL-60(TB) leukemia) [µM] | TGI (HL-60(TB) leukemia) [µM] | GI50 (HOP-92 NSCLC) [µM] | TGI (HOP-92 NSCLC) [µM] | GI50 (IGROV1 ovarian) [µM] | TGI (IGROV1 ovarian) [µM] | GI50 (NCI-H460 lung) [µM] | TGI (NCI-H460 lung) [µM] | GI50 (PC-3 prostate) [µM] | TGI (PC-3 prostate) [µM] | GI50 (SK-MEL-28 melanoma) [µM] | TGI (SK-MEL-28 melanoma) [µM] | GI50 (TK-10 renal) [µM] | TGI (TK-10 renal) [µM]
C[C@@H]1Cc2c([nH]c3ccccc23)[C@@H](c2c(F)cc(NC3CN(CCCF)C3)cc2F)N1CC(F)(F)CO | 9.91 | 28.7 | 3.44 | 15.3 | 5.41 | 19.3 | 4.9 | 22.5 | 1.15 | 6.36 | 2.77 | 10.8 | 5.19 | 19.2 | 2.35 | 9.67 | 2.45 | 6.49 | 14.4 | 29.3
O=[N+]([O-])/C=C/c1cc2ccccc2[nH]1 |  | 42.7 |  | 9.61 |  | 78 |  | 24.3 |  | 43.5 |  | 26.3 |  | 30.4 |  | 31.7 |  | 44 |  | 32.2
CN(C)C/C=C/C(=O)Nc1cc2c(Nc3ccc(F)c(Cl)c3F)ncnc2cc1OCCOC(F)F | 0.596 | 10.2 | 2.47 | 13.3 | < 0.0302 | 3 | 1.74 | 6.96 | 0.0585 | 1.13 | < 0.01 | 0.39 | 2.34 | 10.5 | 1.9 | 9.09 | 2.29 | 9.59 | < 0.01 | 0.738
O=C(O)c1cc2ccccc2c(N=Nc2cc(C(F)(F)F)ccc2Cl)c1O |  | > 100 |  | > 100 |  | > 100 |  | > 100 |  | > 100 |  | > 100 |  | > 100 |  | > 100 |  | > 100 |  | > 100
Cc1nc(CN2CCCCC2)c(O)c(=O)[nH]1 |  | > 100 |  | > 100 |  | > 100 |  | > 100 |  | > 100 |  | > 100 |  | > 100 |  | > 100 |  | > 100 |  | > 100
COC(=O)c1c(O)c([N+](=O)[O-])cc2c1c1c(n2Cc2ccccc2)C(=O)c2ccccc2C1=O | 20.4 | > 100 | 15.8 | > 100 | 22.9 | 82.9 | 25.7 | > 100 | 8.08 | 63 | 35.1 | > 100 | 4.94 | 27.3 | 15.4 | 53.9 | 34.9 | > 100 | 18.7 | > 100
CS(=O)(=O)Nc1cccc(-c2cc(-c3ccccc3Cl)c(C#N)c(N)n2)c1 | 0.655 | 16.6 | 0.562 | > 82.4 | 2.38 | 21.4 | 0.361 | 13.4 | 1.11 | 16 | 0.769 | 22.6 | 0.417 | 11.5 | 0.531 | 14.1 | 1.22 | 19.9 | 1.15 | 18.5
N#CC(C#N)N=Nc1ccc(Br)cc1 | 47.9 | > 100 | 1.53 | 10.7 | 6 | > 83 | 1.7 | 4.38 | 0.249 | 1.84 | 3.68 | > 73.6 | 11.5 | > 100 | 2.42 | 17.7 | 3.41 | 26.5 | 4.04 | 43.2
OC(COc1ccc(F)cc1)Cn1cnc2c(Cl)ncnc21 (stereo not given) | > 100 | > 100 | 50.8 | > 100 | > 100 | > 100 | 36.3 | > 100 | > 100 | > 100 | 47.4 | > 100 | > 100 | > 100 | > 100 | > 100 | > 100 | > 100 | 63.3 | > 100
CN1CCN(c2cc(C(=O)Nc3cc4cc(-c5cnn(C)c5)ccc4cn3)ccn2)CC1 | 0.0432 | 11.4 | 0.155 | > 39.2 | 0.302 | 14.3 | 0.119 | 7.91 | 0.16 | 3.6 | 0.0581 | 3.3 | 0.121 | 11.7 | 0.314 | 31.4 | 0.217 | 2.89 | 0.202 | 11.4
O=Cc1ccc(-c2ccc(-c3nc4ccccc4o3)cc2)s1 | 70.5 | > 100 | 5.68 | > 100 | 20.3 | 77 | 12.7 | > 100 | > 100 | > 100 | 30.1 | > 100 | 23.7 | 85.3 | > 100 | > 100 | 24.1 | > 100 | 33.6 | 81.3
